The values below come from paper PMC3274548, “Toward New Therapeutics for Skin and Soft Tissue Infections: Propargyl-Linked Antifolates Are Potent Inhibitors of MRSA and Streptococcus pyogenes” (PLoS ONE, 2012).

Values after ≈ are worked out from the molar mass of the structure shown. Where two headings read alike, the source gives them in different places.

In assay [1] the test system is MRSA (S.aureus 13709). As to the kind of experiment: MIC, broth microdilution with Alamar Blue. It is filed as cell-based, Staphylococcus aureus. As to conditions: for MIC: Staphylococcus aureus, MRSA. How it is done: (§1) Stock solutions of standard antibiotics and test compounds were made at 50 mM in DMSO. […] For susceptibility testing, 10 µL of glycerol stock was suspended in a 10 mL shake flask culture of chemically defined Isosensitest broth (Oxoid) supplemented with 2% w/v glucose. A sample of the shake flask culture was diluted to 1×10^6 cells/mL in media and added to 96-well test plates (100 µL per well) containing test compounds dispensed in DMSO (2 µL) using serial two-fold dilutions. After an incubation period (30°C) determined from the strain specific doubling time, a 0.03% w/v aqueous solution of resazurin (10 µL) was added and the plates were allowed to incubate; each well was then scored for dye reduction.

The test system of assay [2] is Streptococcus pyogenes. As to the kind of experiment: MIC, broth microdilution with Alamar Blue. As to conditions: for MIC: Streptococcus pyogenes. In kind it is cell-based. As to the method: as §1
Assay [3] relates to MRSA strain containing the F98Y mutation. As to conditions: cited from earlier work.
The target in assay [4] is T1, S. aureus DHFR (Staphylococcus aureus, UniProt P0A017).
T1 construct: the DHFR gene was inserted into vector pET41 with a His8 tag for purification; His8; made in house; host or cells: E. coli BL21 (DE3)
Description: biochemical. It is filed as biochemical. How it is done: (§2) S. aureus DHFR was cloned, expressed and purified as previously described. Briefly, the DHFR gene was inserted into vector pET41 with a His8 tag for purification. The protein was expressed in E. coli BL21 (DE3) cells. […] The protein was concentrated to ∼5 mg/mL. S. pyogenes DHFR was cloned using PCR from genomic DNA and inserted in vector pET-41.
(§3) Enzyme inhibition assays were performed by monitoring the rate of NADPH oxidation by the DHFR enzyme at an absorbance of 340 nm over five minutes. Assays were performed in the presence of saturating concentrations of NADPH (100 µM) and initiated with dihydrofolate (1 mM). All assays were completed at 25°C in a buffer containing 20 mM TES pH 7.0, 50 mM KCl, 10 mM 2-mercaptoethanol, 0.5 mM EDTA and 1 mg/mL BSA. Inhibition was measured at least three times with inhibitor concentrations near the IC50 value and the average IC50 value is reported with a standard deviation.

The target in assay [5] is S. pyogenes DHFR (Streptococcus pyogenes, UniProt Q9A091). Description: biochemical. It is filed as biochemical. As to the method: as §2, §3
For assay [6], the target named is T2, Human DHFR (Homo sapiens, UniProt P00374).
T2 sequence (P00374 1-187): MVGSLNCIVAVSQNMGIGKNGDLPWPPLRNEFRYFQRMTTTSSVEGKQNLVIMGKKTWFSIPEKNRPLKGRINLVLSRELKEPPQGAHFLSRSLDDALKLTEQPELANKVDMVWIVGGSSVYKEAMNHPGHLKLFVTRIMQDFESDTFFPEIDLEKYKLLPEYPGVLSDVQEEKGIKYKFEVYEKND
As to the kind of experiment: DHFR enzyme inhibition assay (NADPH oxidation, 340 nm). In kind it is biochemical. As to conditions: human DHFR; average of at least three measurements; read-out: IC50 (nM) Human. As to the method:
as §3

Assay [7] has as its system MCF-10 cells. As to the kind of experiment: Mammalian cell toxicity (Alamar Blue). It is filed as cell-based. As to conditions: Homo sapiens, MCF10; cytotoxicity, 4 h incubation; read-out: IC50 MCF-10. As to the method: Adherent cell lines were maintained in Eagle's Minimal Essential Media (Sigma-Aldrich, St. Louis, MO, USA) with 2 mM glutamine and Earle's Balanced Salt Solution (HyClone, Logan, UT, USA) adjusted to contain 1.5 g/L sodium bicarbonate, 0.1 mM non-essential amino acids, 1 mM sodium pyruvate and 10% fetal calf serum. Fetal calf serum used in these assays was lot matched throughout. […] Toxicity assays were conducted between passages 10–20. Target compound toxicity was measured by incubating the test compound with the cells for 4 h, washing the cells and finally treating the cells with Alamar Blue. After 12–24 h, the fluorescence of the reduced dye was measured. Fluorescence intensity as a function of test compound concentration was fit to the Fermi equation, using non-linear least squares regression analysis, to estimate IC50 values.
(In general: The colour change of resazurin is a common sign of viable cells or microbes.)

The test system of assay [8] is HepG2 cells. As to the kind of experiment: Mammalian cell toxicity (Alamar Blue). In kind it is cell-based. As to conditions: Homo sapiens, cytotoxicity, 4 h incubation. How it is done: Fetal calf serum used in these assays was lot matched throughout. All cultures were maintained under a humidified 5% CO2 atmosphere at 37°C, had media refreshed twice weekly and were subcultured by trypsinization and resuspension at a ratio of 1∶5 each week. Toxicity assays were conducted between passages 10–20. Target compound toxicity was measured by incubating the test compound with the cells for 4 h, washing the cells and finally treating the cells with Alamar Blue. After 12–24 h, the fluorescence of the reduced dye was measured. Fluorescence intensity as a function of test compound concentration was fit to the Fermi equation, using non-linear least squares regression analysis, to estimate IC50 values.

Assay [9] deals with Staphylococcus aureus subsp. aureus ATCC 44300. Description: MIC and MBC determination (microdilution, plating on Isosensitest agar). It is filed as cell-based. As to conditions: ATCC44300. From the text: MBC was defined as the lowest concentration of inhibitor preventing colony growth on agar plates.
(In broth dilution the organism is exposed to a series of concentrations in liquid medium.)

Assay [10] deals with TMP-SMZ-resistant MRSA strain. Description: MIC against clinical isolates of MRSA. As to conditions: Staphylococcus aureus, clinical isolate, Table 4, read-out: MIC TMP-SMZ^R. It is filed as cell-based.
Assay [11] deals with USA300 CA-MRSA. Description: MIC against clinical isolates of MRSA. It is filed as cell-based, Staphylococcus aureus. As to conditions: Staphylococcus aureus, clinical isolate, read-out: MIC USA300 CA-MRSA.
In assay [12] the test system is USA100 HA-MRSA. As to the kind of experiment: MIC against clinical isolates of MRSA. As to conditions: Staphylococcus aureus, clinical isolate, read-out: MIC USA100 HA-MRSA. It is filed as cell-based.
The subject of assay [13] is HA-MRSA. As to the kind of experiment: MIC against clinical isolates of MRSA. It is filed as cell-based. As to conditions: Staphylococcus aureus, clinical isolate, read-out: MIC HA-MRSA.
Assay [14] relates to hVISA Mu3. As to the kind of experiment: MIC against clinical isolates of MRSA. In kind it is cell-based. As to conditions: Staphylococcus aureus; heteroresistant vancomycin intermediate S. aureus; read-out: MIC hVISA Mu3.
The subject of assay [15] is VISA Mu50. Description: MIC against clinical isolates of MRSA. In kind it is cell-based. As to conditions: Staphylococcus aureus, read-out: MIC VISA Mu50.
Assay [16] concerns MRSA strain containing the F98Y mutation. Description: MIC against MRSA strain containing the F98Y mutation. As to conditions: Staphylococcus aureus, read-out: MIC against MRSA strain containing the F98Y mutation. It is filed as cell-based.
Assay [17] relates to MRSA strain ATCC 43300. As to conditions: selection at ten times the MIC value.
Description: Selective plates were grown for 30 hours at 37°C. […] Direct colony PCR was used to isolate and amplify the dfrA gene from resistant strains using methods described in [34]. All PCR products were screened for point mutations in DHFR by high quality DNA sequencing (Genewiz). Primers used to detect the dfrA gene contained restriction enzyme cut sites for NdeI and XhoI in order to ligate PCR products into the pET41 vector for further validation with DNA sequencing with the T7 promoter sequencing primer. Mutation frequencies were calculated based on the sequencing information provided for each mutant colony.
The mark [18] stands for this setting: 10% fetal calf serum, value in parentheses, read-out: MIC MRSA +FCS.
The mark [19] stands for this setting: value in parentheses, read-out: MIC MRSA.
Where [20] appears, read: 10% FCS, read-out: MIC S. pyogenes +FCS.
[21] abbreviates: 10% FCS, value in parentheses, read-out: MIC S. pyogenes +FCS.
Where [22] appears, read: value in parentheses, read-out: MIC S. pyogenes.
[23] abbreviates: IC50 (MCF10)/MIC (pathogen), both values in µM.

T1 sequence (P0A017 whole entry): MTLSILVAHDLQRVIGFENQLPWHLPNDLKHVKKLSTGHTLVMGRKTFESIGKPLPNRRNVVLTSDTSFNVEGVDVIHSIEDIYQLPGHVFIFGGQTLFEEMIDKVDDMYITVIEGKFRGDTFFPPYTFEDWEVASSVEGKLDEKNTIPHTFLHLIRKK
Sequence of S. pyogenes DHFR (Q9A091 entry or part of it): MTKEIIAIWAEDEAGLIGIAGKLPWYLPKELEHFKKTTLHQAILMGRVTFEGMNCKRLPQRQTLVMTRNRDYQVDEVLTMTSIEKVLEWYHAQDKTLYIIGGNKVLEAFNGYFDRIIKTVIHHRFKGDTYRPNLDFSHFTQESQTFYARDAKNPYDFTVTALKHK

Regarding `COc1cc(Cc2cnc(N)nc2N)cc(OC)c1OC` [TMP, trimethoprim, reference compound], the “MIC MRSA” value in assay [1] turned out to be 0.14 mg/L (≈ 0.482 µM). Moreover, in assay [1] (10% fetal calf serum), the “MIC MRSA +FCS” value came out at 0.14 mg/L (≈ 0.482 µM). In addition, the MIC in assay [1] (setting [18]) came to 0.5 µM; in [1] (setting [19]) it was 0.5 µM; in assay [2] (setting [20]) it was 0.58 mg/L; in assay [2] (setting [21]) it was 2 µM; in assay [2] (setting [22]), 2 µM; in assay [2] (read-out: MIC S. pyogenes) it was 0.58 mg/L. In assay [3], the “MIC against the F98Y strain” value was 16 mg/L (≈ 55.1 µM).

For `COc1cc(-c2ccncc2)cc(C(C)C#Cc2c(C)nc(N)nc2N)c1` (stereo not shown) [Compound 24], in assay [4] (IC50 (human)/IC50 (pathogen)), the “Selectivity (h/Sa)” value was found to be 58. For the same molecule, the IC50 in assay [4] (S. aureus DHFR, average of at least three measurements, read-out: IC50 (nM) Sa) worked out at 26 ± 2 nM; in assay [6], 1500 ± 8 nM; in assay [7], 220 µM; in assay [8], 233 µM. The “Selectivity (h/Sp)” value in assay [5] (IC50 (human)/IC50 (pathogen)) was 9.4. Besides, the “Selectivity MRSA” value in assay [1] (setting [23]) is reported as 1,760. Moreover, the MIC was found to be 0.09 mg/L in assay [1] (10% fetal calf serum, read-out: MIC MRSA +FCS); 0.25 µM in [1] (setting [18]); 0.125 µM in assay [1] (setting [19]); 0.04 mg/L in [1] (read-out: MIC MRSA); 0.09 mg/L in [2] (setting [20]); 0.25 µM in assay [2] (setting [21]). Besides, the MIC in assay [2] (setting [22]) was 0.125 µM; in assay [2] (read-out: MIC S. pyogenes), 0.04 mg/L; in [9], 0.078 mg/L (≈ 0.217 µM); in [10], 0.045 mg/L (≈ 0.125 µM); in assay [11] (USA300) it was 0.09 mg/L (≈ 0.25 µM); in assay [11], 0.045 mg/L (≈ 0.125 µM). The MIC in assay [12] (USA100) is 0.045 mg/L (≈ 0.125 µM); in assay [12] (first USA100 column) it was 2.9 mg/L (≈ 8.07 µM); in assay [12] (third USA100 column) it was 0.09 mg/L (≈ 0.25 µM); in [13], 0.09 mg/L (≈ 0.25 µM); in assay [14] it was 0.045 mg/L (≈ 0.125 µM); in assay [15], 0.18 mg/L (≈ 0.501 µM). The minimal inhibitory concentration (MIC) in [16] worked out at 2.5 mg/L (≈ 6.96 µM). Besides, the “Selectivity S. pyogenes” value in [2] (setting [23]) was 1,760. The molecule also yielded an MBC in [9] of 0.078 mg/L (≈ 0.217 µM). Further, in assay [17], the resistance frequency is given as 3.9×10^−10.

Turning to `CCc1nc(N)nc(N)c1C#CC(C)c1cc(OC)cc(-c2ccncc2)c1` (stereo not shown) [Compound 25], the IC50 in assay [4] stood at 19 ± 1 nM; in [5] it was 0.18 ± 0.019 µM; in assay [6] it was 1300 ± 11 nM; in assay [7], 85 µM; in assay [8] it was 171 µM. Further, the MIC in [1] (setting [19]) was found to be 0.5 µM; in assay [1] (read-out: MIC MRSA), 0.09 mg/L; in assay [2] (setting [22]), 0.032 µM; in assay [2] (read-out: MIC S. pyogenes), 0.012 mg/L; in [9], 0.078 mg/L (≈ 0.209 µM); in assay [10] it was 0.09 mg/L (≈ 0.241 µM). Besides, the MIC in assay [11] (USA300) turned out to be 0.09 mg/L (≈ 0.241 µM); in [11] it was 0.045 mg/L (≈ 0.12 µM); in assay [12] (USA100), 0.09 mg/L (≈ 0.241 µM); in [12] (first USA100 column) it was 2.9 mg/L (≈ 7.77 µM); in assay [12] (third USA100 column), 0.09 mg/L (≈ 0.241 µM); in [13] it was 0.02 mg/L (≈ 0.0536 µM). For the same molecule, the MIC in [14] and in [15] was 0.09 mg/L (≈ 0.241 µM) each time. The minimum bactericidal concentration (MBC) in assay [9] came out at 0.078 mg/L (≈ 0.209 µM).

What is called MIC is the least concentration at which growth counts as inhibited. By IC50 is commonly meant the concentration at which inhibition is half-maximal. A word on the MBC: it is the lowest tested concentration that kills the bacteria rather than only halting them.
